Molecular target: T1, PDK-1 (Homo sapiens, UniProt O15530)
T1 sequence (O15530 1-556): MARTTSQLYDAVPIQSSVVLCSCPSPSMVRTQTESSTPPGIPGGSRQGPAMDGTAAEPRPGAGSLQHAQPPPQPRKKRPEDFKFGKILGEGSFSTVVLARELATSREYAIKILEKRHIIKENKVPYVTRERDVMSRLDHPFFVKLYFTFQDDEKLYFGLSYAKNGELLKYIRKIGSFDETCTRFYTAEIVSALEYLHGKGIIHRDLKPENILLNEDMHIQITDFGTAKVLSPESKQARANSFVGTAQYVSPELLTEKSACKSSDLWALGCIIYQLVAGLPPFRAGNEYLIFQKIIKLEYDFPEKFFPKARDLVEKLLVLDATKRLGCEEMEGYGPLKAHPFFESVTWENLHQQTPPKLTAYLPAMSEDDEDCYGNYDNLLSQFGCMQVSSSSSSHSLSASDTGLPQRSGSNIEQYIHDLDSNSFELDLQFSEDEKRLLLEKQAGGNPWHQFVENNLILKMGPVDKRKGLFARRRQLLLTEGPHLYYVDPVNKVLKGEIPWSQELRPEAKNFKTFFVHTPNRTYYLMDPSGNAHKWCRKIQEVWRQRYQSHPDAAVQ
Assay: PDK-1 kinase inhibition ELISA assay (phosphorylation of His6-tagged SGK1 S422D by PDK-1)
Format: biochemical
Conditions: not given

For `COCCOc1cc2ncc3c(N)nc(N(C)C)cc3c2cc1OC` [Ia-60, 9-Methoxy-8-(2-methoxyethoxy)-N^2,N^2-dimethylbenzo[c]-2,7-naphthyridine-2,4-diamine], which IC50 is on record?
Its IC50 is 739 nM.

How did the IC50 turn out when `COc1cc2ncc3c(N)nc(-c4cncc(Nc5ccccc5CO)c4)cc3c2cc1OC` [Ib-196, (2-{[5-(4-amino-8,9-dimethoxybenzo[c][2,7]naphthyridin-2-yl)pyridin-3-yl]amino}phenyl)methanol] was run?
The IC50 was 47 nM.

Same assay, conditions: PDK-1 ELISA, Table 11; read-out: Average IC50

`COc1cc2ncc3c(N)nc(-c4cncc(OC[C@@H](N)CSc5ncc(CO)n5C)c4)cc3c2cc1OC` [Ib-167, (2-{[(2R)-2-amino-3-{[5-(4-amino-8,9-dimethoxybenzo[c][2,7]naphthyridin-2-yl)pyridin-3-yl]oxy}propyl]thio}-1-methyl-1H-imidazol-5-yl)methanol] was tested. Which IC50 did it give?
The IC50 was 5 nM.

`COc1cc2ncc3c(N)nc(-c4ccc(F)c(F)c4)cc3c2cc1OC` [Ib-240, 2-(3,4-difluorophenyl)-8,9-dimethoxybenzo[c][2,7]naphthyridin-4-amine] was tested. Which IC50 did it give?
Its IC50 is 998 nM.

Which IC50 does the source give for `COc1cc2ncc3c(N)nc(N4CC[C@@H](N(C)C)C4)cc3c2cc1OC` [Ib-66, 2-[(3R)-3-(dimethylamino)pyrrolidin-1-yl]-8,9-dimethoxybenzo[c]-2,7-naphthyridin-4-amine] here?
Its IC50 is 4970 nM.

For `COc1cc2ncc3c(N)nc(-c4cncc(OC[C@@H](N)CN(C)c5cccc(F)c5)c4)cc3c2cc1OC` [Ib-83, (2S)-3-{[5-(4-amino-8,9-dimethoxybenzo[c][2,7]naphthyridin-2-yl)pyridin-3-yl]oxy}-N1-(3-fluorophenyl)-N1-methylpropane-1,2-diamine], which IC50 is on record?
The IC50 was 5 nM.

For `COc1cc2ncc3c(N)nc(-c4cncc(OCCN)c4)cc3c2cc1OC` [Ib-11, 2-(5-(2-aminoethoxy)pyridin-3-yl)-8,9-dimethoxybenzo [c][2,7]naphthyridin-4-amine], which IC50 is on record?
The IC50 was 5 nM.

How did the IC50 turn out when `COc1cc2ncc3c(N)nc(-c4cncc(Nc5ccc(CCO)cc5)c4)cc3c2cc1OC` [Ib-198, 2-(4-{[5-(4-amino-8,9-dimethoxybenzo[c][2,7]naphthyridin-2-yl)pyridin-3-yl]amino}phenyl)ethanol] was run?
Its IC50 is 91 nM.

`COc1cc2ncc3c(N)nc(-c4cncc(OC[C@@H](N)CNCC5(c6ccccc6)CCCC5)c4)cc3c2cc1OC` [Ib-105, (2S)-3-{[5-(4-amino-8,9-dimethoxybenzo[c][2,7]naphthyridin-2-yl)pyridin-3-yl]oxy}-N1-[(1-phenylcyclopentyl)methyl]propane-1,2-diamine] was tested. Which IC50 did it give?
Its IC50 is 41 nM.

With `COc1cc2ncc3c(N)nc(N4CC[C@H](N(C)C)C4)cc3c2cc1OC` [Ib-67, 2-[(3S)-3-(dimethylamino)pyrrolidin-1-yl]-8,9-dimethoxybenzo[c]-2,7-naphthyridin-4-amine] as the molecule, how does the IC50 read?
The IC50 was 9640 nM.

`COc1cc2ncc3c(N)nc(-c4cncc(OC[C@@H](N)COc5ccc(F)c(F)c5)c4)cc3c2cc1OC` [Ib-143, 2-(5-{[(2S)-2-amino-3-(3,4-difluorophenoxy)propyl]oxy}pyridin-3-yl)-8,9-dimethoxybenzo[c][2,7]naphthyridin-4-amine] was tested. Which IC50 did it give?
Its IC50 is 7 nM.

For `CCOC1(OCC)CCN(C[C@H](N)COc2cncc(-c3cc4c(cnc5cc(OC)c(OC)cc54)c(N)n3)c2)CC1` [Ib-5, 2-(5-{[(2S)-2-amino-3-(4,4-diethoxypiperidin-1-yl)propyl]oxy}pyridin-3-yl)-8,9-dimethoxybenzo[c]-2,7-naphthyridin-4-amine], which IC50 is on record?
The IC50 was 26 nM.

Which IC50 does the source give for `COc1cc2ncc3c(N)nc(-c4cncc(OC[C@@H](N)CNC(C)(C)c5ccccn5)c4)cc3c2cc1OC` [Ib-94, (2S)-3-{[5-(4-amino-8,9-dimethoxybenzo[c][2,7]naphthyridin-2-yl)pyridin-3-yl]oxy}-N1-(1-methyl-1-pyridin-2-ylethyl)propane-1,2-diamine] here?
The IC50 was 4 nM.

For `COc1cc2ncc3c(N)nc(-c4cncc(Nc5ccncc5)c4)cc3c2cc1OC` [Ib-201, 8,9-dimethoxy-2-[5-(pyridin-4-ylamino)pyridin-3-yl]benzo[c][2,7]naphthyridin-4-Amine], which IC50 is on record?
The IC50 was 477 nM.

How did the IC50 turn out when `COc1cc2ncc3c(N)nc(-c4cncc(OC[C@@H](N)COc5nccs5)c4)cc3c2cc1OC` [Ib-156, 2-(5-{[(2R)-2-amino-3-(1,3-thiazol-2-yloxy)propyl]oxy}pyridin-3-yl)-8,9-dimethoxybenzo[c][2,7]naphthyridin-4-amine] was run?
The IC50 was 3 nM.

With `COc1cc2ncc3c(N)nc(-c4cncc(Oc5cccc(N)n5)c4)cc3c2cc1OC` [Ib-171, 2-{5-[(6-Aminopyridin-2-yl)oxy]pyridin-3-yl}-8,9-dimethoxybenzo[c][2,7]naphthyridin-4-amine] as the molecule, how does the IC50 read?
Its IC50 is 153 nM.

For `CCN(CC)CCNC(=O)c1ccc(Nc2cncc(-c3cc4c(cnc5cc(OC)c(OC)cc54)c(N)n3)c2)cc1` [Ib-191, 4-{[5-(4-amino-8,9-dimethoxybenzo[c][2,7]naphthyridin-2-yl)pyridin-3-yl]amino}-N-[2-(diethylamino)ethyl]benzamide], which IC50 is on record?
The IC50 was 81 nM.

For `COc1cc2ncc3c(N)nc(-c4cncc(CCC(C)(C)N)c4)cc3c2cc1OC` [Ib-257, 2-[5-(3-amino-3-methylbutyl)pyridin-3-yl]-8,9-dimethoxybenzo[c][2,7]naphthyridin-4-amine], which IC50 is on record?
Its IC50 is 29 nM.

With `COc1ccc(-c2cc3c(cnc4cc(OC)c(OC)cc43)c(N)n2)cn1` [Ib-237, 8,9-dimethoxy-2-(6-methoxypyridin-3-yl)benzo[c][2,7]naphthyridin-4-amine] as the molecule, how does the IC50 read?
Its IC50 is 50 nM.

For `COc1cc2ncc3c(N)nc(-c4cccc(C(=O)N5CCN(c6ccccn6)CC5)c4)cc3c2cc1OC` [Ib-247, 8,9-dimethoxy-2-{3-[(4-pyridin-2-ylpiperazin-1-yl)carbonyl]phenyl}benzo[c][2,7]naphthyridin-4-amine], which IC50 is on record?
The IC50 was 1000 nM.

How did the IC50 turn out when `COc1cc2ncc3c(N)nc(-c4cncc(C(=N)NC(C)C)c4)cc3c2cc1OC` [Ib-269, 5-(4-Amino-8,9-dimethoxybenzo[c][2,7]naphthyridin-2-yl)-N-isopropylnicotin-imidamide] was run?
The IC50 was 606 nM.

Which IC50 does the source give for `COc1cc2ncc3c(N)nc(-c4cncc(OC[C@@H](N)Cc5ccc(N)cc5)c4)cc3c2cc1OC` [Ib-19, 2-(5-{[(2S)-2-amino-3-(4-aminophenyl)propyl]oxy}pyridin-3-yl)-8,9-dimethoxybenzo[c]-2,7-naphthyridin-4-amine] here?
The IC50 was 81 nM.

`COc1cc2ncc3c(NO)nc(-c4cncc(OC[C@@H](N)Cc5c[nH]c6ccccc56)c4)cc3c2cc1OC` [Compound I-1, 2-(5-{[(2S)-2-amino-3-(1H-indol-3-yl)propyl]oxy}pyridin-3-yl)-N-hydroxy-8,9-dimethoxybenzo[c]-2,7-naphthyridin-4-amine] was tested. Which IC50 did it give?
Its IC50 is 80 nM.

Which IC50 does the source give for `COCCN(C)c1cc2ncc3c(N)nc(-c4cncc(OC[C@@H](N)Cc5ccccc5)c4)cc3c2cc1OC` [Ia-38, 2-(5-{[(2S)-2-amino-3-phenylpropyl]oxy}pyridine-3-yl)-9-methoxy-N^8-(2-methoxyethyl)-N^8-methylbenzo[c]-2,7-naphthyridin-4,8-diamine] here?
The IC50 was 69.5 nM.

With `COc1cc2ncc3c(N)nc(-c4cncc(OC[C@@H](Cc5ccccc5)NC=O)c4)cc3c2cc1OC` [Ib-16, N-((1R)-2-{[5-(4-amino-8,9-dimethoxybenzo[c]-2,7-naphthyridin-2-yl)pyridin-3-yl]oxy}-1-benzylethyl)formamide] as the molecule, how does the IC50 read?
The IC50 was 38 nM.

How did the IC50 turn out when `COc1cc2ncc3c(N)nc(-c4cncc(OC[C@@H](N)COc5ccc(C(F)(F)F)cn5)c4)cc3c2cc1OC` [Ib-145, 2-(5-{[(2R)-2-amino-3-{[5-(trifluoromethyl)pyridin-2-yl]oxy}propyl]oxy}pyridin-3-yl)-8,9-dimethoxybenzo[c][2,7]naphthyridin-4-amine] was run?
The IC50 was 4 nM.

How did the IC50 turn out when `CCC(C)NC(=N)c1cncc(-c2cc3c(cnc4cc(OC)c(OC)cc43)c(N)n2)c1` (stereo not shown) [Ib-270, 5-(4-Amino-8,9-dimethoxybenzo[c][2,7]naphthyridin-2-yl)-N-sec-butylnicotin-imidamide] was run?
Its IC50 is 606 nM.

Which IC50 does the source give for `COc1cc(F)cc(-c2cc3c(cnc4cc(OC)c(OC)cc43)c(N)n2)c1` [Ib-242, 2-(3-fluoro-5-methoxyphenyl)-8,9-dimethoxybenzo[c][2,7]naphthyridin-4-amine] here?
The IC50 was 147 nM.

Which IC50 does the source give for `COc1cc2ncc3c(N)nc(-c4cccnc4C)cc3c2cc1OC` [Ib-60] here?
The IC50 was 532 nM.

Which IC50 does the source give for `COc1cc2ncc3c(N)nc(-c4cncc(Oc5ccc(N)nc5)c4)cc3c2cc1OC` [Ib-172, 2-{5-[(6-Aminopyridin-3-yl)oxy]pyridin-3-yl}-8,9-dimethoxybenzo[c][2,7]naphthyridin-4-amine] here?
The IC50 was 151 nM.

How did the IC50 turn out when `COc1cc2ncc3c(N)nc(-c4cncc(OC[C@@H](N)COC5=NCCN5)c4)cc3c2cc1OC` [Ib-148, 2-(5-{[(2R)-2-amino-3-(4,5-dihydro-1H-imidazol-2-yloxy)propyl]oxy}pyridin-3-yl)-8,9-dimethoxybenzo[c][2,7]naphthyridin-4-amine] was run?
Its IC50 is 9 nM.

How did the IC50 turn out when `COCCOc1cc2ncc3c(N)nc(NCCN4CCCCC4)cc3c2cc1OC` [Ia-49, 9-methoxy-8-(2-methoxyethoxy)-N^2-(2-piperidin-1-ylethyl)benzo[c]-2,7-naphthyridine-2,4-diamine] was run?
The IC50 was over 20000 nM.

`COc1cc2ncc3c(N)nc(-c4cncc(OC[C@@H](N)COc5ccc(CCC#N)cc5)c4)cc3c2cc1OC` [Ib-158, 3-(4-{[(2S)-2-amino-3-{[5-(4-amino-8,9-dimethoxybenzo[c][2,7]naphthyridin-2-yl)pyridin-3-yl]oxy}propyl]oxy}phenyl)propanenitrile] was tested. Which IC50 did it give?
Its IC50 is 55 nM.

Which IC50 does the source give for `COc1cc2ncc3c(N)nc(-c4cncc(Nc5ccc(C(N)=O)cc5)c4)cc3c2cc1OC` [Ib-206, 4-{[5-(4-amino-8,9-dimethoxybenzo[c][2,7]naphthyridin-2-yl)pyridin-3-yl]amino}benzamide] here?
Its IC50 is 183 nM.
